Measurements published in publication PMC8348983 (International Journal of Molecular Sciences, 2021).
Entries after “also recorded” stand apart in the source; their conditions may differ. Read-outs that look alike come from different tables or passages of the source.

Columns and labels:
human plasma BChE = molecular target: T1, human plasma BChE (Homo sapiens, UniProt P06276); test: biochemical; type: biochemical; settings: for IC50: mean ± SEM of three independent measurements, each in triplicate, read-out: IC50, hBuChE ± SEM; for SI for hBuChE: ratio hAChE IC50/hBuChE IC50; for inhibition at 100 µM: tested at 100 µM compound concentration, read-out: % Inhibition hBuChE ± SEM
T1 construct: was used as a source of BChE and was prepared from heparinized human blood; from tissue; host or cells: human plasma from heparinized human blood
T1 sequence (P06276 29-602): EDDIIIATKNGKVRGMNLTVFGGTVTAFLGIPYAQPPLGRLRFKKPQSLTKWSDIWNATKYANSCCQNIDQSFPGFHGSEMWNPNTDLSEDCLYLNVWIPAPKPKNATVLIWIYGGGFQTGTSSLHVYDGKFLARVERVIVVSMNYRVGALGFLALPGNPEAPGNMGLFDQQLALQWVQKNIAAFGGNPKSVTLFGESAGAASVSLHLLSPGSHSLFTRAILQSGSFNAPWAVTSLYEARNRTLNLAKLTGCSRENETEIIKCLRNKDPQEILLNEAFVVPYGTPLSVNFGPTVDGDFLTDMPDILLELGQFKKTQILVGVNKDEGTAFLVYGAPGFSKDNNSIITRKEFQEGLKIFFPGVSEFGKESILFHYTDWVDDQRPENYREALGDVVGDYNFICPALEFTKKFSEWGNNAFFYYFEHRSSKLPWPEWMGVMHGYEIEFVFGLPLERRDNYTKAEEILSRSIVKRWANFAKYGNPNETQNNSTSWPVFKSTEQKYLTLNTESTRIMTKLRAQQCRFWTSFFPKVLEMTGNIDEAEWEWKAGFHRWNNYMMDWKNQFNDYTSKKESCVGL

human recombinant AChE [1] = molecular target: T2, human recombinant AChE (Homo sapiens, UniProt P22303); test: biochemical; type: biochemical; settings: for IC50: mean ± SEM of three independent measurements, each in triplicate, read-out: IC50, hAChE ± SEM; for inhibition at 100 µM: tested at 100 µM compound concentration, read-out: %Inhibition hAChE ± SEM
T2 sequence (P22303 32-614): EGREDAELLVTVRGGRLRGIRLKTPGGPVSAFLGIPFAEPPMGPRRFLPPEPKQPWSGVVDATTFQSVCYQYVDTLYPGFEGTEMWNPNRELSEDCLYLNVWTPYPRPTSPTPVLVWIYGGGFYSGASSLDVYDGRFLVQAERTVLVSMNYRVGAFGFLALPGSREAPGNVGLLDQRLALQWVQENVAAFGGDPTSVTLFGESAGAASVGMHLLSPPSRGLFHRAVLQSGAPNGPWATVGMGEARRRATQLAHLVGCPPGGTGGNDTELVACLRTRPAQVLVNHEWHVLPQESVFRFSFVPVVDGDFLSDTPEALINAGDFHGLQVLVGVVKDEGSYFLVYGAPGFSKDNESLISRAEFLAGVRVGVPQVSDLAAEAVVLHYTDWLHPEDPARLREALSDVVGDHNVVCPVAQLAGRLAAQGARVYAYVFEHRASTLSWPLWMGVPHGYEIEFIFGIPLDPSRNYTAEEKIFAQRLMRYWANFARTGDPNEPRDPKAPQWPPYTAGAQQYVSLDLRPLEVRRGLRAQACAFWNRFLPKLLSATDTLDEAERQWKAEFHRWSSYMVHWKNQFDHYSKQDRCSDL

[2] = molecular target: POP (prolyloligopeptidase) (Homo sapiens, UniProt P48147); test: POP inhibition assay; type: biochemical; settings: bounds marked f: highest tested concentration due to low solubility in buffer; read-out: IC50, POP ± SEM
Chain of POP (prolyloligopeptidase) (P48147 whole entry): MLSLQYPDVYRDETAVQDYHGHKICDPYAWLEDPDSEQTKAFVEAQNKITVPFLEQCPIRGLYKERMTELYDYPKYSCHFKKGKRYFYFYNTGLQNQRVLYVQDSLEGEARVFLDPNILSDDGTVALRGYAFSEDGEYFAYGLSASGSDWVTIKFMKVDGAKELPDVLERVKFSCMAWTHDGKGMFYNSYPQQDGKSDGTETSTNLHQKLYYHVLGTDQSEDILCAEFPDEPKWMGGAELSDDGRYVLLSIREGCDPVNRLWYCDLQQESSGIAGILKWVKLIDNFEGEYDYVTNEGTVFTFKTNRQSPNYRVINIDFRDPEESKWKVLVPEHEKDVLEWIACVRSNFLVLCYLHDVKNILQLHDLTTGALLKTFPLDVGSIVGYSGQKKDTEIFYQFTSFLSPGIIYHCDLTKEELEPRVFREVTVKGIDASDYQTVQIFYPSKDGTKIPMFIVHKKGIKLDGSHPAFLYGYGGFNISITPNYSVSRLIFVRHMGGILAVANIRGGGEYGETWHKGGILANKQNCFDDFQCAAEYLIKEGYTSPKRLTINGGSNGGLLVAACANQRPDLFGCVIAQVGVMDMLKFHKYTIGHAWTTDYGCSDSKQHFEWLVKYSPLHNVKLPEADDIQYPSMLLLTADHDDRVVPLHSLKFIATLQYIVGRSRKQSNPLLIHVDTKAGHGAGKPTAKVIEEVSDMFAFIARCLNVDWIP
Protocol: The previously applied procedure was used. Detailed description of the assay can be found in Supplementary Materials.
POP (EC 3.4.21.26) was dissolved in phosphate-buffered saline (PBS; 0.01 M Na/K phosphate buffer, […]
The assay was performed in standard polystyrene 96-well microplates with a flat and clear bottom.
Stock solutions of tested compounds were prepared in DMSO (10 mM). Dilutions (10−3 to 10−7 M) were prepared from the stock solution with deionized H2O; the control was performed with the same DMSO concentration. POP substrate, (Z)-Gly-Pro-p-nitroanilide, was dissolved in 50% 1,4-dioxane (5 mM). For each reaction, PBS (170 μL), tested compound (5 μL), and POP (5 μL) were incubated for 5 min at 37 °C. Then, substrate (20 μL) was added, and the microplate was incubated for 30 min at 37 °C. The formation of p-nitroanilide, directly proportional to the POP activity, was measured […]
Synergy 2, BioTek Instruments, Winooski, VT). The inhibition potency of tested compounds was calculated by nonlinear regression analysis and was expressed as an IC50 value (concentration of inhibitor which causes 50% POP inhibition). […]

human recombinant AChE [3] = molecular target: T2, human recombinant AChE; parameters: method as in PMID 32455879; settings: template alkaloids, Figure 1; read-out: IC50,hAChE; cited from earlier work

Row | Structure (SMILES) | IC50 (human plasma BChE) [µM] | SI for hBuChE (human plasma BChE) | inhibition at 100 µM (human plasma BChE) [%] | IC50 (human recombinant AChE [1]) [µM] | inhibition at 100 µM (human recombinant AChE [1]) [%] | IC50 [2] [µM] | hBuChE inhibition potency (in words) (human plasma BChE; screening at 100 µM) | hAChE inhibition potency (in words) (human recombinant AChE [1]; screening at 100 µM) | IC50 (human recombinant AChE [3]) [µM]
1 | COc1ccc(CCNCc2ccc(OCc3ccccc3)c(OC)c2)cc1 [Compound 11, {[4-(benzyloxy)-3-methoxyphenyl]methyl}[2-(4-methoxyphenyl)ethyl]amine] | 2.39 ± 0.27 | >41 | 93.5 ± 0.3 | > 100 | 27.9 ± 0.7 | – | – | – | –
2 | COc1ccc(CCNCc2ccc(OC)c(OCc3ccccc3)c2)cc1 [Compound 12, N-(3-benzyloxy-4-methoxybenzyl)-2-(4-methoxyphenyl)ethan-1-amine] | 1.12 ± 0.11 | >89 | 94.6 ± 0.6 | > 100 | 0 | – | – | – | –
3 | COc1ccc(CNCCc2ccc(O)cc2)cc1OCc1ccccc1 [Compound 2, N-(3-benzyloxy-4-methoxybenzyl)-2-(4-hydroxyphenyl)ethan-1-amine] | 0.29 ± 0.02 | >348 | 97.7 ± 0.5 | > 100 | 35.8 ± 1.2 | > 79 | – | – | –
4 | C=CCN(CCc1ccc(O)cc1)Cc1ccc(OC)c(OCc2ccccc2)c1 [Compound 4, N-allyl-N-(3-benzyloxy-4-methoxybenzyl)-2-(4-hydroxyphenyl)ethan-1-amine] | 0.25 ± 0.01 | >394 | 97.9 ± 0.6 | > 100 | 45.2 ± 2.4 | > 79 | – | – | –
5 | C=CCN(CCc1ccc(OC)cc1)Cc1ccc(OC)c(OCc2ccccc2)c1 [Compound 14, N-allyl-N-(3-benzyloxy-4-methoxybenzyl)-2-(4-methoxyphenyl)ethan-1-amine] | 0.38 ± 0.01 | 98 | 95.8 ± 0.9 | 37.7 | 60.9 ± 0.4 | – | – | – | –
6 | CCOc1cc(CNCCc2ccccc2)ccc1OC [Compound 18, N-(3-ethoxy-4-methoxybenzyl)-2-phenylethan-1-amine] | 41.1 ± 2.6 | >2 | 60 ± 1.6 | > 100 | 0 | – | – | – | –
7 | COc1cc(CNCCc2ccccc2)ccc1OCc1ccccc1 [Compound 7, N-(4-benzyloxy-3-methoxybenzyl)-2-phenylethan-1-amine] | 1.28 ± 0.05 | >78 | 94.5 ± 0.9 | > 100 | 23.4 ± 2.5 | – | – | – | –
8 | COc1ccc(CNCCc2ccccc2)cc1OCc1ccccc1 [Compound 8, N-(3-benzyloxy-4-methoxybenzyl)-2-phenylethan-1-amine] | 1.1 ± 0.05 | >90 | 96.6 ± 0.4 | > 100 | 12.6 ± 0.5 | – | – | – | –
9 | C=CCN(CCc1ccc(O)cc1)Cc1ccc(OC)c(OCC)c1 [Compound 16, N-allyl-N-(3-ethoxy-4-methoxybenzyl)-2-(4-hydroxyphenyl)ethan-1-amine] | 1.21 ± 0.08 | >82 | 91.7 ± 0.4 | > 100 | 28.3 ± 1.1 | – | – | – | –
10 | C=CCOc1ccc(CCN(CC=C)Cc2ccc(OCc3ccccc3)c(OC)c2)cc1 [Compound 5, N-allyl-N-(4-benzyloxy-3-methoxybenzyl)-2-(4-allyloxyphenyl)ethan-1-amine] | > 100 | – | 38.9 ± 0.9 | > 100 | 3.4 ± 0.5 | – | no inhibition potency; also recorded: inactive | no inhibition potency | –
11 | C=CCN(CCc1ccc(O)cc1)Cc1ccc(OCc2ccccc2)c(OC)c1 [Compound 3, N-allyl-N-(4-benzyloxy-3-methoxybenzyl)-2-(4-hydroxyphenyl)ethan-1-amine] | 0.61 ± 0.04 | >163 | 96.8 ± 1.1 | > 100 | 20.8 ± 0.9 | > 200 | – | – | –
12 | C=CCN(CCc1ccc(OC)cc1)Cc1ccc(OCc2ccccc2)c(OC)c1 [Compound 13, N-allyl-N-(4-benzyloxy-3-methoxybenzyl)-2-(4-methoxyphenyl)ethan-1-amine] | 2.72 ± 0.5 | >37 | 90.9 ± 1.5 | > 100 | 32.7 ± 1.6 | – | – | – | –
13 | C=CCN(CCc1ccccc1)Cc1ccc(OC)c(OCC)c1 [Compound 19, N-allyl-N-(3-ethoxy-4-methoxybenzyl)-2-phenylethan-1-amine] | 4.63 ± 0.48 | >22 | 80.2 ± 0.2 | > 100 | 5.9 ± 2.1 | – | – | – | –
14 | CCOc1cc(CNCCc2ccc(O)cc2)ccc1OC [Compound 15, N-(3-ethoxy-4-methoxybenzyl)-2-(4-hydroxyphenyl)ethan-1-amine] | 15.1 ± 2.34 | >6 | 75.3 ± 0.6 | > 100 | 25.8 ± 1.3 | – | – | – | –
15 | CCOc1cc(CN(CCc2ccccc2)Cc2ccccc2)ccc1OC [Compound 20, N-benzyl-N-(3-ethoxy-4-methoxybenzyl)-2-phenylethan-1-amine] | 0.69 ± 0.03 | >145 | 82.5 ± 1 | > 100 | 49.5 ± 0.8 | – | – | – | –
16 | C=CCN(CCc1ccccc1)Cc1ccc(OCc2ccccc2)c(OC)c1 [Compound 9, N-allyl-N-(4-benzyloxy-3-methoxybenzyl)-2-phenylethan-1-amine] | 5.19 ± 0.28 | >19 | 74.9 ± 2.4 | > 100 | 18.8 ± 1.9 | – | – | – | –
17 | COc1cc(CNCCc2ccc(O)cc2)ccc1OCc1ccccc1 [Compound 1, N-(4-benzyloxy-3-methoxybenzyl)-2-(4-hydroxyphenyl)ethan-1-amine] | 0.36 ± 0.03 | >277 | 98.7 ± 0.3 | > 100 | 30.4 ± 2.1 | 186 ± 14 | – | – | –
18 | COc1cc(CN(C)CCc2ccc(O)cc2)c(-c2cccc3c2N(C)CC3)cc1OC [carltonine A] | – | – | – | – | – | – | – | – | > 100
19 | C=CCN(CCc1ccccc1)Cc1ccc(OC)c(OCc2ccccc2)c1 [Compound 10, N-allyl-N-(3-benzyloxy-4-methoxybenzyl)-2-phenylethan-1-amine] | 1.17 ± 0.04 | 18 | 92 ± 2.4 | 21.5 | 72.4 ± 1.1 | – | – | – | –
20 | C=CCOc1ccc(CCN(CC=C)Cc2ccc(OC)c(OCC)c2)cc1 [Compound 17, N-allyl-N-(3-ethoxy-4-methoxybenzyl)-2-(4-allyloxyphenyl)ethan-1-amine] | 9.89 ± 1.37 | – | 77 ± 1 | > 100 | 29.3 ± 3.9 | – | – | – | –
21 | CN(CCc1ccc(O)cc1)Cc1cc2c(cc1-c1cccc3c1N(C)CC3)OCO2 [carltonine B] | – | – | – | – | – | – | – | – | > 100
